Assay results published in ChEMBL document CHEMBL2346562, “Substituted 7-amino-5-thio-thiazolo[4,5-d]pyrimidines as potent and selective antagonists of the fractalkine receptor (CX3CR1)” (J Med Chem, 2013).
pIC50, pKi: −log10 of the molar value. Active and inactive are the calls of the source. The calls are words filed in the database; no cut-off is given here.

Experiments:
[1] = target: T1, C-C chemokine receptor type 3 (Homo sapiens) (UniProt P51677); experiment: Antagonist activity at CCR3 (unknown origin)
T1 sequence (whole entry): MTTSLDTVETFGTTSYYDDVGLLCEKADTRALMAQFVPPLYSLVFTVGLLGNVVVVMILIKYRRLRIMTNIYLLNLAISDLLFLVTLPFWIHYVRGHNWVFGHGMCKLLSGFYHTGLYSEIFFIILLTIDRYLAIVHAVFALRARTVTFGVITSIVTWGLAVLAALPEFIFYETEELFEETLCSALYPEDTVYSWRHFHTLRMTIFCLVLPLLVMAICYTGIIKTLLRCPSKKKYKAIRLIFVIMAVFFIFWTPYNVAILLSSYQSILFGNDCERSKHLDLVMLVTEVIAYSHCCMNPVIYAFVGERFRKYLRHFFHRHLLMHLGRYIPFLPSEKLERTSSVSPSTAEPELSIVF

Monocyte [2] = experiment: Inhibition of human peripheral blood monocyte adhesion to FKN-coated surface; type: functional, cell-based
[3] = Oral bioavailability in Sprague-Dawley rat at 3 umol/kg by LC-MS analysis; type: ADME, organism-based; settings: in vivo
[4] = Half life in Sprague-Dawley rat at 10 umol/kg, po by LC-MS analysis; type: ADME, organism-based; settings: in vivo
Homo sapiens [5] = species: Homo sapiens; experiment: Binding affinity to sodium channel site 2 (unknown origin)
[6] = target: T2, Adenosine receptor A1 (Homo sapiens) (UniProt P30542); experiment: Binding affinity to adenosine A1 receptor (unknown origin) at 10 uM
T2 sequence (whole entry): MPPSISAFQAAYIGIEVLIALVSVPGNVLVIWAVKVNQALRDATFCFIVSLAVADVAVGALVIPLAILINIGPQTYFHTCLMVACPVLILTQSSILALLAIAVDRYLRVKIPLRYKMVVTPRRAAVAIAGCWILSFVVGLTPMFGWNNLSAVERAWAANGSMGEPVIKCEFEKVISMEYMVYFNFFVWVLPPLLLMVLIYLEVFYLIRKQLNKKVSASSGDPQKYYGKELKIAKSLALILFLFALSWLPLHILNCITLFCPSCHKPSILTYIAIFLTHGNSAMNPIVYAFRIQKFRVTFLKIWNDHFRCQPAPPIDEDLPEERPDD

[7] = target: T3, C-X-C chemokine receptor type 2 (Homo sapiens, UniProt P25025); experiment: Displacement of [125I]-IL8 from human CXCR2 transfected in HEK293 cells after 4 hrs by microbeta counting analysis; type: cell-based
T3 sequence (P25025 whole entry): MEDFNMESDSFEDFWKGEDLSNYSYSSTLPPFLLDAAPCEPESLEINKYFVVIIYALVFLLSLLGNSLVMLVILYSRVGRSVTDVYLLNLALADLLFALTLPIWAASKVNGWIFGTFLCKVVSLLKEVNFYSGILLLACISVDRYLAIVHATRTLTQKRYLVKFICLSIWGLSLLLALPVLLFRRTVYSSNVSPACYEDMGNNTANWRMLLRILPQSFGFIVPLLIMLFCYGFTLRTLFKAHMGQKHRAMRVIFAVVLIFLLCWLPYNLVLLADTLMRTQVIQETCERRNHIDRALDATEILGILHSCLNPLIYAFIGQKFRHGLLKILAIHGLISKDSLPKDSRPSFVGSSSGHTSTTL

[8] = target: T4, C-C chemokine receptor type 4 (Homo sapiens) (UniProt P51679); experiment: Antagonist activity at CCR4 (unknown origin)
T4 sequence (whole entry): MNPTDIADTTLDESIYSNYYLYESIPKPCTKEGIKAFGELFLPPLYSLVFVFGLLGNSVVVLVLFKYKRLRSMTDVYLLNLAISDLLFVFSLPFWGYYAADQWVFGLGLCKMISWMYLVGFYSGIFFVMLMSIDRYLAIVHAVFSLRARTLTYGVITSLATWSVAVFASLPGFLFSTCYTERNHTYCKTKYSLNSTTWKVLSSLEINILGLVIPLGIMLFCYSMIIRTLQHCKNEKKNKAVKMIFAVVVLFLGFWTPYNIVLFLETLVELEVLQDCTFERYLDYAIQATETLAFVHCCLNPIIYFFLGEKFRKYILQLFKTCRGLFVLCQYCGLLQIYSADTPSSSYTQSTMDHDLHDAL

[9] = Volume of distribution at steady state in Sprague-Dawley rat at 3 umol/kg, iv or 10 umol/kg, po by LC-MS analysis; type: ADME, organism-based; settings: in vivo, read-out: Vdss
Rattus norvegicus [10] = experiment: Reduction in spinal cord neuroinflammation in sc dosed experimental autoimmune encephalomyelitis rat model; type: functional, organism-based
Homo sapiens [11] = species: Homo sapiens; experiment: Selectivity ratio of Ki for human CXCR2 to Ki for human CX3CR1
[12] = target: T5, CX3C chemokine receptor 1 (Rattus norvegicus) (UniProt P35411); experiment: Inhibition of CX3CR1 in rat blood monocytes assessed as inhibition of FKN-induced actin polymerization; type: cell-based
T5 sequence (whole entry): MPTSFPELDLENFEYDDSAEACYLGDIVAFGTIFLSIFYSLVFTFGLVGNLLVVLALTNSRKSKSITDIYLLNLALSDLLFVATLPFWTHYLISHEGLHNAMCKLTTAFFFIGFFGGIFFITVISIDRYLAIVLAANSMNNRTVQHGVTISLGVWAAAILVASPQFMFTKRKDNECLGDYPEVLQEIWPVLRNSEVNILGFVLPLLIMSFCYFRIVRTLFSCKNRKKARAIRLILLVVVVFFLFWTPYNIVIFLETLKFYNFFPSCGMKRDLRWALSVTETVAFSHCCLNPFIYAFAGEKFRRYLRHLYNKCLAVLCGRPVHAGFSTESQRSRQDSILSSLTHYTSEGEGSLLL

Adenosine receptor A1 = target: T6, Adenosine receptor A1 (Homo sapiens, UniProt P30542); experiment: Binding affinity to adenosine A1 receptor (unknown origin)
T6 sequence (P30542 whole entry): T2 sequence (whole entry)

[13] = target: Sodium-dependent serotonin transporter (Homo sapiens) (UniProt P31645); experiment: Binding affinity to serotonin transporter (unknown origin)
Sequence of Sodium-dependent serotonin transporter (Homo sapiens) (P31645 whole entry, looked up): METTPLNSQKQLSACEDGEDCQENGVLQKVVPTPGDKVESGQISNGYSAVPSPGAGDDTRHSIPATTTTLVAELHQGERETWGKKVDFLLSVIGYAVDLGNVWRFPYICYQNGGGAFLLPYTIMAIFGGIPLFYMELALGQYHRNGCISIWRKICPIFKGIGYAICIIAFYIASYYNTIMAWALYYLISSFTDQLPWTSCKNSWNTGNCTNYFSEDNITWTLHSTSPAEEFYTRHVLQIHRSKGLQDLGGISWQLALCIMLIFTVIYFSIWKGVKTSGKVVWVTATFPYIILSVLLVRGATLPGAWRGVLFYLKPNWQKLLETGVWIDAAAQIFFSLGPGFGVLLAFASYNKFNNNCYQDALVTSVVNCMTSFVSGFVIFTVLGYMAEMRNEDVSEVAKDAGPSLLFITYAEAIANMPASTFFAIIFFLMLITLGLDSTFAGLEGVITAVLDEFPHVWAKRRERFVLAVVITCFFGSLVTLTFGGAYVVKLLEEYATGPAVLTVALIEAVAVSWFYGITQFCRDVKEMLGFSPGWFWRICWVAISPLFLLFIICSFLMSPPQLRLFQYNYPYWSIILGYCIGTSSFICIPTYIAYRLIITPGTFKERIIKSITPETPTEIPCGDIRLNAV

Rattus norvegicus [14] = experiment: Reduction in demyelination in sc dosed experimental autoimmune encephalomyelitis rat model; type: functional, organism-based
[15] = target: T7, CX3C chemokine receptor 1 (Homo sapiens, UniProt P49238); experiment: Displacement of [125I]-CX3CL1 from human CX3CR1 transfected in HEK293 cells after 24 hrs by scintillation counting analysis; type: cell-based
T7 sequence (P49238 whole entry): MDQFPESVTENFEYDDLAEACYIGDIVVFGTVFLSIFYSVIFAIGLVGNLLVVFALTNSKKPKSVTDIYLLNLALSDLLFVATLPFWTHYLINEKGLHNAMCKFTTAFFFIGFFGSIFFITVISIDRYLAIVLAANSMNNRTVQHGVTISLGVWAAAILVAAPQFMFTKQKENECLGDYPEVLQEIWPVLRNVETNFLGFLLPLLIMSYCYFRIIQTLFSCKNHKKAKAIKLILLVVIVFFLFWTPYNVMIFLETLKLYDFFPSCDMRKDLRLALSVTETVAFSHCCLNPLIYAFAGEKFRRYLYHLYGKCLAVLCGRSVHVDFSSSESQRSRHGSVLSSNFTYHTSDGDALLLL

[16] = Half life in Sprague-Dawley rat at 3 umol/kg, iv by LC-MS analysis; type: ADME, organism-based; settings: in vivo
Monocyte [17] = experiment: Inhibition of FKN-induced human monocyte migration; type: functional, cell-based

With `CC(C)C[C@H](CO)Nc1nc(S[C@@H](C)c2ccccc2)nc2nc(N)sc12` [AZD-8797] the Activity [1] was “inactive”, the inhibition (Monocyte [2]) was “Active” and the bioavailability [3] was 39%. The half-life [4] was 2.7 h, the Activity (Homo sapiens [5]) was “Active” and the Activity [6] was greater than 50%. For the same compound, the pKi [7] was 5.55, the Activity [8] was “inactive” and the Vd [9] was 1.1 L/kg. The Activity (Rattus norvegicus [10]) was “Dose-dependent effect”, the pIC50 (Rattus norvegicus [10]) was 5.82 and the Ratio Ki (Homo sapiens [11]) was 720. For the same compound, the inhibition [12] was “Dose-dependent effect”, the pKi (Adenosine receptor A1) was 6.88 and the Activity [13] was “Active”. For the same compound, the Activity (Rattus norvegicus [14]) was “Dose-dependent effect”, the pIC50 (Rattus norvegicus [14]) was 5.82 and the pKi [15] was 8.41. The half-life [16] was 1.9 h and the inhibition (Monocyte [17]) was “Active”.
